This is an account of results in patent publication US20170355705A1 (GlaxoSmithKline Intellectual Property (No.2) Limited, priority 2014, published 2017).

Structures can show the parent of a compound that is named as a salt. Where two headings read alike, the source gives them in different places.

The test addresses T1, SIRT1 (Homo sapiens, UniProt Q96EB6).
T1 sequence (Q96EB6 1-747): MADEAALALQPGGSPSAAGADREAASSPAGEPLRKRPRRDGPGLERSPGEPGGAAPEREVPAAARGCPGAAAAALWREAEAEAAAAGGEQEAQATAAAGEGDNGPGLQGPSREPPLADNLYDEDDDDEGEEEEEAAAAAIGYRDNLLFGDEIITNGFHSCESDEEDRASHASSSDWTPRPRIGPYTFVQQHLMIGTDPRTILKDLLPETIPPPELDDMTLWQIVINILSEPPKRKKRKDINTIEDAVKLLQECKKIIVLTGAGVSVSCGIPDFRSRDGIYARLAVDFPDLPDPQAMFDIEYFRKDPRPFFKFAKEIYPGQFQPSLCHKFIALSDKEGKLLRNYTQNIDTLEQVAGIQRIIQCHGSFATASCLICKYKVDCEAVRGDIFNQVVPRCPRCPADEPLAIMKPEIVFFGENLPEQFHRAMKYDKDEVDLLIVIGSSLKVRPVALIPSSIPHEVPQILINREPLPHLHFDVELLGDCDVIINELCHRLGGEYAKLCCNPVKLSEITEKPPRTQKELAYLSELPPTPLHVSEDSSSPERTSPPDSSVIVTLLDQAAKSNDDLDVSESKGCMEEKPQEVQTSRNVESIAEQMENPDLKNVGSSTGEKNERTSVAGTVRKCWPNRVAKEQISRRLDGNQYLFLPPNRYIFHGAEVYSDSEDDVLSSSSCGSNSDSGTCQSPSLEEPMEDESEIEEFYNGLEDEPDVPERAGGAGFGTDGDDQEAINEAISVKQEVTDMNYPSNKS
The experiment in a line: Trp mass spectrometry assay of SIRT1 activity (EC1.5, percent maximum activation). In kind it is biochemical. From the text:
Mass spectrometry based assays were used to identify modulators of SIRT1 activity. […] The peptide was labeled with the fluorophore 5TMR (excitation 540 nm/emission 580 nm) at the C-terminus. The sequence of the peptide substrate was based on p53 with several modifications. In addition, the methionine residue naturally present in the sequence was replaced with the norleucine because the methionine may be susceptible to oxidation during synthesis and purification.
The Trp mass spectrometry assay was conducted as follows. […] The SIRT1 protein was obtained by cloning the SirT1 gene into a T7-promoter containing vector, which was then expressed in BL21(DE3) bacterial cells and purified as described in further detail below. Test compound was added at varying concentrations to this reaction mixture and the resulting reactions were monitored. After the 25 minute incubation with SIRT1, 10 μL of 10% formic acid was added to stop the reaction. The resulting reactions were sealed and frozen for later mass spec analysis. The relative SIRT1 activity was then determined by measuring the amount of O-acetyl-ADP-ribose (OAADPR) formed (or, alternatively, the amount of deacetylated Trp peptide generated) by the NAD-dependent sirtuin deacetylation reaction in the presence of varying concentrations of the test compound versus control reactions lacking the test compound. The degree to which the test agent activated deacetylation by SIRT1 was expressed as EC1.5 (i.e., the concentration of compound required to increase SIRT1 activity by 50% over the control lacking test compound), and Percent Maximum Activation (i.e., the maximum activity relative to control (100%) obtained for the test compound).
This time point was the same as that used for test compounds and, within the linear range, the endpoint represents a change in velocity.
For the above assay, SIRT1 protein was expressed and purified as follows. The SirT1 gene was cloned into a T7-promoter containing vector and transformed into BL21(DE3). The protein was expressed by induction with 1 mM IPTG as an N-terminal His-tag fusion protein at 18° C. overnight and harvested at 30,000×g. Cells were lysed with lysozyme in lysis buffer (50 mM Tris-HCl, 2 mM Tris[2-carboxyethyl]phosphine (TCEP), 10 μM ZnCl2, 200 mM NaCl) and further treated with sonication for 10 min for complete lysis. The protein was purified over a Ni-NTA column (Amersham) and fractions containing pure protein were pooled, concentrated and run over a sizing column (Sephadex S200 26/60 global). The peak containing soluble protein was collected and run on an Ion-exchange column (MonoQ). Gradient elution (200 mM-500 mM NaCl) yielded pure protein. This protein was concentrated and dialyzed against dialysis buffer (20 mM Tris-HCl, 2 mM TCEP) overnight. The protein was aliquoted and frozen at −80° C. until further use.
“NT” means not tested; “ND” means not determinable.

The mark [1] stands for this setting: Trp mass spectrometry assay, 0.5 μM peptide substrate, 120 μM βNAD+, 10 nM SIRT1, 25 minutes at 25° C.
[2] abbreviates: Trp mass spectrometry assay, EC1.5 = concentration giving 150% activation of SIRT1.
[3] abbreviates: Trp mass spectrometry assay, percent maximum activation of SIRT1.

Turning to `O=C(Nc1cnccn1)N1c2nc(N3CCOC(C4CC4)C3)ccc2N2CC[C@H]1C2` (stereo partly shown), the “TRP MAX RESP (percent maximum fold activation)” value under setting [1] is “A (Fold activation ≧150%)”.

As to `CC[C@@H]1CN(c2ccc3c(n2)N(C(=O)Nc2cnccn2)[C@H]2CCN3C2)CCO1`, the “TRP MAX RESP (percent maximum fold activation)” value under setting [1] is on record as “A (Fold activation ≧150%)”. With `Cc1cc(-c2ccc3c(n2)N(C(=O)N2CCC(C)C2)[C@H]2CCN3C2)ccn1` (single isomer, unassigned) [Example 193], the “TRP Activity (EC1.5)” value under setting [2] is “C (EC1.5>25 μM)”. Moreover, the “TRP MAX RESP (percent maximum fold activation)” value under setting [3] is given as “B (Fold Activation <150%)”. For the compound `CC1CNCCN1c1ccc2c(n1)N(C(=O)Nc1cnccn1)[C@H]1CCN2C1` (single isomer, unassigned) [Example 228], under setting [1], the “TRP Activity (EC1.5, concentration of test compound that results in 150% activation of SIRT1)” value is listed as “C (EC1.5>25 μM)” and the “TRP MAX RESP (percent maximum fold activation)” value is given as “B (Fold Activation <150%)”. As to `CC1CN(c2ccc3c(n2)N(C(=O)Nc2cnccn2)[C@H]2CCN3C2)CCN1` (single isomer, unassigned) [Example 229], under setting [1], the “TRP Activity (EC1.5, concentration of test compound that results in 150% activation of SIRT1)” value is “C (EC1.5>25 μM)” and the “TRP MAX RESP (percent maximum fold activation)” value is recorded as “B (Fold Activation <150%)”. Regarding `O=C(Nc1cnccn1)N1c2nc(N3CCOC(C(F)(F)F)C3)ccc2N2CC[C@H]1C2` (single isomer, unassigned) [Example 230], under setting [1], the “TRP Activity (EC1.5, concentration of test compound that results in 150% activation of SIRT1)” value is “B (EC1.5 1-25 μM)” and the “TRP MAX RESP (percent maximum fold activation)” value was “A (Fold activation ≧150%)”. The corresponding values for `O=C(Nc1cnccn1)N1c2nc(N3CCOC(C(F)(F)F)C3)ccc2N2CC[C@H]1C2` (single isomer, unassigned) [Example 231] are “A (EC1.5<1 μM)” and “A (Fold activation ≧150%)”.

For the compound `Cc1cc(-c2ccc3c(n2)N(C(=O)Nc2cc(CCC(O)CO)ccn2)[C@H]2CCN3C2)ccn1` (single isomer, unassigned) [Example 359], under setting [1], the “TRP Activity (EC1.5, concentration of test compound that results in 150% activation of SIRT1)” value is “B (EC1.5 1-25 μM)” and the “TRP MAX RESP (percent maximum fold activation)” value is reported as “A (Fold activation ≧150%)”. As to `Cc1cc(-c2ccc3c(n2)N(C(=O)Nc2cnccn2)C2CCN3C2)ccn1` (stereo in doubt) [Example 149, (4R)-7-(2-methylpyridin-4-yl)-N-(pyrazin-2-yl)-3,4-dihydro-1,4-methanopyrido[2,3-b][1,4]diazepine-5(2H)-carboxamide], the “TRP Activity (EC1.5)” value under setting [2] is given as “B (EC1.5 1-25 μM)”. Moreover, under setting [3], the “TRP MAX RESP (percent maximum fold activation)” value is given as “A (Fold activation ≧150%)”. With `O=C(Nc1ccnc(OCC(O)CO)c1)N1c2nc(-c3cccc(C(F)(F)F)c3)ccc2N2CC[C@H]1C2` (stereo in doubt) [Example 170, (4S)-N-(2-((S)-2,3-dihydroxypropoxy)pyridin-4-yl)-7-(3-(trifluoromethyl)phenyl)-3,4-dihydro-1,4-methanopyrido[2,3-b][1,4]diazepine-5(2H)-carboxamide], the “TRP Activity (EC1.5)” value under setting [2] was “A (EC1.5<1 μM)”. Further, the “TRP MAX RESP (percent maximum fold activation)” value under setting [3] is recorded as “A (Fold activation ≧150%)”.

With `Cc1cc(-c2ccc3c(n2)N(C(=O)Nc2cc(-c4cnc(C)o4)ccn2)C2CCN3C2)ccn1` (stereo in doubt) [Example 335, (4S)-N-(4-(2-methyloxazol-5-yl)pyridin-2-yl)-7-(2-methylpyridin-4-yl)-3,4-dihydro-1,4-methanopyrido[2,3-b][1,4]diazepine-5(2H)-carboxamide, Hydrochloride], under setting [1], the “TRP Activity (EC1.5, concentration of test compound that results in 150% activation of SIRT1)” value was “B (EC1.5 1-25 μM)” and the “TRP MAX RESP (percent maximum fold activation)” value is “A (Fold activation ≧150%)”. Regarding `O=C(Nc1ccnc(OCC(O)CO)c1)N1c2nc(-c3cnn(CC(F)(F)F)c3)c(Cl)cc2N2CC[C@H]1C2` (stereo in doubt) [Example 371, (4S)-8-chloro-N-(2-((R)-2,3-dihydroxypropoxy)pyridin-4-yl)-7-(1-(2,2,2-trifluoroethyl)-1H-pyrazol-4-yl)-3,4-dihydro-1,4-methanopyrido[2,3-b][1,4]diazepine-5(2H)-carboxamide], under setting [1], the “TRP Activity (EC1.5, concentration of test compound that results in 150% activation of SIRT1)” value is “B (EC1.5 1-25 μM)” and the “TRP MAX RESP (percent maximum fold activation)” value is “A (Fold activation ≧150%)”. `Cc1ccc(-c2nc3c(cc2C(F)(F)F)N2CC[C@@H](C2)N3C(=O)Nc2cccnc2)cn1` [Example 1, (4S)-7-(6-methylpyridin-3-yl)-N-(pyridin-3-yl)-8-(trifluoromethyl)-3,4-dihydro-1,4-methanopyrido[2,3-b][1,4]diazepine-5(2H)-carboxamide]: the “TRP Activity (EC1.5)” value under setting [2] is listed as “C (EC1.5>25 μM)”. Also, the “TRP MAX RESP (percent maximum fold activation)” value under setting [3] was “B (Fold Activation <150%)”. On to `Cc1ccc(-c2nc3c(cc2Br)N2CC[C@@H](C2)N3C(=O)Nc2ccccn2)cn1` [Example 2, (4S)-8-bromo-7-(6-methylpyridin-3-yl)-N-(pyridin-2-yl)-3,4-dihydro-1,4-methano pyrido[2,3-b][1,4]diazepine-5(2H)-carboxamide], for which the “TRP Activity (EC1.5)” value under setting [2] is recorded as “B (EC1.5 1-25 μM)”. Moreover, the “TRP MAX RESP (percent maximum fold activation)” value under setting [3] is given as “A (Fold activation ≧150%)”. Take `Cc1ccc(-c2nc3c(cc2Cl)N2CC[C@@H](C2)N3C(=O)Nc2cccnc2)cn1` [Example 3, (4S)-8-chloro-7-(6-methylpyridin-3-yl)-N-(pyridin-3-yl)-3,4-dihydro-1,4-methanopyrido[2,3-b][1,4]diazepine-5(2H)-carboxamide]: the “TRP Activity (EC1.5)” value is “B (key: A: EC1.5<1 μM; B: EC1.5 1-25 μM; EC1.5>25 μM)” and the “TRP MAX RESP (percent maximum fold activation)” value is reported as “A (key: A: Fold activation ≧150%; B: Fold Activation <150%)”. For `Cc1ccc(-c2nc3c(cc2F)N2CC[C@@H](C2)N3C(=O)Nc2ccccn2)cn1` [Example 5, (4S)-8-fluoro-7-(6-methylpyridin-3-yl)-N-(pyridin-2-yl)-3,4-dihydro-1,4-methanopyrido[2,3-b][1,4]diazepine-5(2H)-carboxamide], the “TRP Activity (EC1.5)” value under setting [2] is recorded as “B (EC1.5 1-25 μM)”. Also, under setting [3], the “TRP MAX RESP (percent maximum fold activation)” value is reported as “A (Fold activation ≧150%)”. Consider `Cc1ccc(-c2nc3c(cc2Br)N2CC[C@@H](C2)N3C(=O)Nc2cccnc2)cn1` [Example 6, (4S)-8-bromo-7-(6-methylpyridin-3-yl)-N-(pyridin-3-yl)-3,4-dihydro-1,4-methanopyrido[2,3-b][1,4]diazepine-5(2H)-carboxamide], for which, under setting [2], the “TRP Activity (EC1.5)” value is reported as “B (EC1.5 1-25 μM)”. Also, the “TRP MAX RESP (percent maximum fold activation)” value under setting [3] is listed as “A (Fold activation ≧150%)”.

With `Cc1ccc(-c2nc3c(cc2F)N2CC[C@@H](C2)N3C(=O)Nc2cccnc2)cn1` [Example 7, (4S)-8-fluoro-7-(6-methylpyridin-3-yl)-N-(pyridin-3-yl)-3,4-dihydro-1,4-methanopyrido[2,3-b][1,4]diazepine-5(2H)-carboxamide], the “TRP Activity (EC1.5)” value was “B (key: A: EC1.5<1 μM; B: EC1.5 1-25 μM; EC1.5>25 μM)” and the “TRP MAX RESP (percent maximum fold activation)” value was “A (key: A: Fold activation ≧150%; B: Fold Activation <150%)”.
